{"source": "patent US20090041760A1", "about": "“RETROVIRAL IMMUNOTHERAPY” (priority 2000, published 2009)", "key": {"[1]": {"tested_on": "CD4+, CD8+ and CD25+CD4+ T cells of spleen", "assay": "FACS analysis of spleen cells following Vb therapy on day 14 post infection", "assay_type": "in vivo, mice", "protocol": "FACS analysis of CD4^+ and CD8^+ T cells prepared from spleens of mice treated with Vb on Day 14 pi was performed (FIG. 6). CD25^+CD4^+ T cells were also examined as they have recently been identified as having an important regulatory function in mouse models of autoimmune disease and tumour immunology (Takahashi et al., 1998; Shimizu et al., 1999). It is possible that these cells may play a role in the regulation of the immune response to MAIDS. Day 14 pi and uninfected control mice were given Vb therapy and the spleens collected at 48 hours post Vb treatment."}, "[2]": {"tested_on": "MAIDS virus", "assay": "Adoptive transfer of CD4+ CD25+/- cells into MAIDS infected, day 14 Vinblastine treated mice", "assay_type": "in vivo", "conditions": "uninfected donor cells into MAIDS-infected day 14 Vb-treated recipients; n=5", "excerpt": "An adoptive transfer experiment was designed to directly test the hypothesis that CD4+ CD25+ T cells are functioning as the regulator cells in the murine AIDS model. The same approach used to determine that the regulator cells are CD4+ T cells was used to test whether the CD4+ CD25+ subset are the target of day 14 Vinblastine treatment. […] 2.0×10^6 cells of the regulator CD4+ CD25+ phenotype were purified from single cell suspensions of donor spleens using MACS beads (Miltenyi Biotec) using two positive selection steps. The cells were then tested for purity by flow cytometry (both CD4+ CD25+ and CD4+ CD25− fractions were of >90% purity) and viability using trypan blue exclusion prior to transfer into uninfected (control) and MAIDS infected day 14 Vinblastine treated mice. CD4+ CD25− cells were also transferred to allow that the regulator cells may not present in the CD25+ fraction and also to allow for the possibility that these putative regulator cells may lose CD25 expression as they expand and become activated as was reported by Gavin et al., 2002.\nMice receiving adoptive transfer of cells were either uninfected (control) or MAIDS infected and day 14 Vinblastine treated to examine whether the transfer of cells would result in disease progression. […] Disease progression was assessed by spleen weight at 10 weeks post MAIDS infection."}, "[3]": {"tested_on": "MAIDS virus", "assay": "Rechallenge with MAIDS virus following protective vinblastine therapy", "assay_type": "in vivo, mice", "conditions": "Vb at day 14 pi, rechallenge at 3 or 8 weeks post Vb treatment", "excerpt": "To determine if mice protected from MAIDS by the day 14 pi Vb treatment develop an immune response which would then protect them from a subsequent rechallenge with the MAIDS virus groups of mice, given the Vb therapy at day 14 pi, were rechallenged with the MAIDS virus at 3 or 8 weeks post Vb treatment. […] This is not an unexpected result as the dominant immunosuppression by the regulator population of cells would have been restored as a consequence of the immune effector response to the second (untreated) infection."}, "[4]": {"tested_on": "murine T cell lymphoma", "conditions": "cited from earlier work"}, "[5]": {"tested_on": "LP-BM5 murine leukemia virus (MuLV)", "assay": "MAIDS development in LP-BM5 infected mice after a single dose of vinblastine at different times post infection", "assay_type": "in vivo, C57BL/6 mice", "excerpt": "A murine AIDS (MAIDS) pathology induced by LP-BM5 murine leukemia virus (MuLV) in susceptible mice is an effective tool to investigate mechanisms of retrovirus-induced immunodeficiency. […] Infection of a susceptible strain such as C57BL/6 mice with LP-BM5 leads to chronic splenomegaly, hypergammaglobulinaemia and development of immunodeficiency in both T and B cells. In vitro, there is a progressive impairment in the responsiveness of T-cells and B-cells to mitogenic or specific antigenic stimuli. In vivo, infected mice become increasingly susceptible to challenge with a variety of opportunistic organisms and can develop B-cell lymphoma. Deaths are first observed at 8-10 weeks post-infection (pi), and all mice die within 24 weeks (FIG. 1). These alterations in immune function reflect complex changes in the phenotype and function of all components of the immune network.\nThe treatment with a single dose of the anti-mitotic agent vinblastine (Vb) at different times pi is able to prevent the development/progression of MAIDS. […] Clearly, the Vb treatment is remarkably therapeutic when administered at 6 hr or 14 days pi with 100% ( 10/10) and 74% ( 20/27) of mice, respectively, showing no signs of MAIDS development at 10 weeks pi (as determined by spleen weight, histology and FACS analysis). […] Additional experiments have provided results of 100% of mice having no signs of MAIDS development at least 12 months after Vb treatment 14 days pi (data not shown). Although not as pronounced as the protection seen after day 14 treatment, moderate protection from MAIDS development was still observed. […] The total protection from MAIDS development seen in mice given Vb at 6 hrs pi is not unexpected as the virus replicates in actively replicating cells which are the target of the anti-mitotic drug thus any cells infected with the virus are killed by the Vb preventing the virus from rapidly establishing an infection in the host. However, the highly protective effect observed after a single treatment with Vb at 14 days pi is quite remarkable as, by this stage, the viral infection is well established and the early disease processes are well underway. We propose that this highly therapeutic effect is due to the Vb targeting a particular subset of immune regulator cells during their expansion phase and thereby altering the immune response to the viral infection. […] This leads to long term disease free survival for many months post-infection and treatment.\nSpleens from the Day 14 pi Vb treated mice as well as infected and uninfected control mice were weighed and examined histologically. The splenic architecture of all MAIDS infected mice was profoundly disorganised as previously reported (Hartley et al., 1989)."}, "[6]": {"tested_on": "MAIDS virus", "assay": "Spleen cell transfer into MAIDS infected, day 14 Vb treated mice", "assay_type": "in vivo", "excerpt": "The experiments illustrated in FIG. 7 were designed to determine if a single dose of Vb, administered at 14 days pi, is eliminating a population of expanding CD4^+regulator T cells and thereby releasing effector cells from down-regulation and clearing the host of the MAIDS virus.\nMice were infected with MAIDS, received day 14 pi Vb treatment and then received an adoptive transfer of ~10^7 spleen cells from donor mice prepared as outlined in FIG. 7. For each experiment [designated (I), (II) and (III)] groups consisted of 7 recipient mice and 9 donor mice. Mice in Group I received whole spleens from infected mice that had not received any Vb treatment. Mice in Group II received whole spleen cell preparations, from infected mice, that had been depleted of CD4^+ cells using a FACS cell sorter after staining with fluorochrome-labeled anti-CD4 monoclonal antibody. […] Mice in Group III received whole spleens from infected donor mice that also received Vb treatment on day 14 pi."}}, "note": "Where two headings read alike, the source gives them in different places.", "data": [{"smiles": "CC[C@]1(O)C[C@@H]2CN(CCc3c([nH]c4ccccc34)[C@@](C(=O)OC)(c3cc4c(cc3OC)N(C)[C@H]3[C@@](O)(C(=O)OC)[C@H](OC(C)=O)[C@]5(CC)C=CCN6CC[C@]43[C@@H]65)C2)C1", "note": "[Vb, vinblastine]", "values": [{"measurement": "cell subsets targeted in MAIDS infected mice (uninfected to infected ratios)", "setting": "[1]; CD4+ T cells and CD25+CD4+ T cells, 48 hours post Vb at day 14 pi", "value": "preferentially targeted"}, {"measurement": "effect on spleen cell subsets", "setting": "[1]; spleens collected 48 hours post Vb, day 14 pi and uninfected mice", "value": "all cell subsets are reduced"}, {"measurement": "disease progression (spleen weight at 10 weeks post MAIDS infection) after transfer of CD4+ CD25+/- cells", "setting": "[2]", "value": "disease progression was readily apparent"}, {"measurement": "protection from viral rechallenge (splenomegaly, lymphadenopathy at 20 weeks)", "setting": "[3]", "value": "not protected from viral rechallenge"}, {"measurement": "effect on tumour", "setting": "[4]; single dose at day 10 following tumour inoculation", "value": "enhancement"}, {"measurement": "effect on tumour", "setting": "[4]; single dose at days 4, 6, 13 and 15 following tumour inoculation", "value": "regression"}, {"measurement": "mice protected from any splenomegaly at 20 weeks pi", "setting": "[5]; Vb at day 14 pi, 4/5 mice", "value": 80, "unit": "%"}, {"measurement": "mice having no signs of MAIDS development at least 12 months after treatment", "setting": "[5]; Vb treatment 14 days pi, additional experiments, data not shown", "value": 100, "unit": "%"}, {"measurement": "splenic architecture (histology) at 10 weeks pi", "setting": "[5]; day 14 pi Vb treated mice with normal spleen weights (below 0.25 g)", "value": "indistinguishable from that of uninfected control mice"}, {"measurement": "FACS analysis of spleen cells: cellular proportions (CD4+, CD8+ and B cells) and distributions at 10 weeks pi", "setting": "[5]; day 14 pi Vb treated mice, preliminary, data not shown", "value": "like those observed in normal uninfected mice"}, {"measurement": "mice showing no signs of MAIDS development at 10 weeks pi (spleen weight, histology, FACS analysis)", "setting": "[5]; single 6 mg/kg i.p. dose at 6 hr pi, 10/10 mice", "value": 100, "unit": "%"}, {"measurement": "mice showing protective effect (no signs of MAIDS) at 10 weeks pi", "setting": "[5]; single 6 mg/kg i.p. dose at 6 days pi, 6/13 mice", "value": 46, "unit": "%"}, {"measurement": "mice showing no signs of MAIDS development at 10 weeks pi (spleen weight, histology, FACS analysis)", "setting": "[5]; single 6 mg/kg i.p. dose at 14 days pi, 20/27 mice", "value": 74, "unit": "%"}, {"measurement": "protection against MAIDS development", "setting": "[5]; single 6 mg/kg i.p. dose at day 2 pi", "value": "no protection against MAIDS development"}, {"measurement": "protection against MAIDS development", "setting": "[5]; single 6 mg/kg i.p. dose at day 7 pi", "value": "no protection against MAIDS development"}, {"measurement": "protection from MAIDS development after spleen cell transfer", "setting": "[6]; Group I: ~10^7 whole spleen cells from MAIDS infected donors without Vb", "value": "completely prevented Vb from protecting mice from MAIDS development"}, {"measurement": "protection from MAIDS development after spleen cell transfer", "setting": "[6]; Group II: donor spleen cells depleted of CD4+ cells by FACS sorting", "value": "the protective effect of Vb was not overcome"}, {"measurement": "protection from MAIDS development after spleen cell transfer", "setting": "[6]; Group III: spleen cells from infected donors also given day 14 Vb", "value": "fully protected from MAIDS development"}]}]}
